Assay results from PubChem BioAssay (NCI).
“And” between values parts separate entries of the source, which are not always exact repeats. Identical values can stand only once.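 Dose response: 5 concentrations. Exposure: 48 h. Format: 96-well plates. Endpoint: linear interpolation; highest concentration if not reached. The concentration for 50% growth inhibition is given as GI50. The concentration for full growth arrest is given as TGI.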

Assays:
Test in all cases: DTP human tumour cell line panel, 48 h
[1] = system: A549 NSCLC
[2] = system: NCI-H23 lung
[3] = system: LOX IMVI melanoma
[4] = system: NCI-H522 lung
[5] = system: 786-0 renal
[6] = system: SN12C renal
[7] = system: A498 renal
[8] = system: HCT-116 colon
[9] = system: CAKI-1 renal
[10] = system: NCI/ADR-RES ovarian

Row | Compound | TGI [1] | TGI [2] | TGI [3] | TGI [4] | TGI [5] | TGI [6] | TGI [7] | TGI [8] | TGI [9] | TGI [10] | GI50 [1] [µM] | GI50 [2] [µM] | GI50 [3] [µM] | GI50 [4] [µM] | GI50 [5] [µM] | GI50 [6] [µM] | GI50 [7] [µM] | GI50 [8] [µM] | GI50 [9] [µM] | GI50 [10] [µM]
1 | O=C(C/C(=N/O)C(=O)NC1=C(Cl)C(=O)c2ccccc2C1=O)CC(c1ccccc1)c1c(O)c2ccccc2oc1=O (configuration not stated) | 35.3 µM | 72.1 µM | > 100 µM | 52.9 µM | > 100 µM | 23.5 µM | > 100 µM | 20.6 µM | 32.6 µM | > 100 µM |  |  |  |  |  |  |  |  |  | 
2 | NCCCC[C@@H]1NC(=O)[C@H]2CCCN2C(=O)[C@H](Cc2ccccc2)CNC(=O)[C@H](Cc2ccccc2)NC1=O | > 37.5 µM | > 37.5 µM | > 37.5 µM | > 37.5 µM | > 37.5 µM | > 37.5 µM | > 37.5 µM | > 37.5 µM | > 37.5 µM | > 37.5 µM | > 37.5 | > 37.5 | > 37.5 | > 37.5 | > 37.5 | > 37.5 | > 37.5 | > 37.5 | > 37.5 | > 37.5
3 | O=C(/C=C/Sc1cc(C(F)(F)F)cc(C(F)(F)F)c1)c1ccc(Cl)cc1 | 32.8 µM | 31.3 µM | 2.73 µM | 12.4 µM | 9.84 µM | 3.46 µM | 29.3 µM | 4.09 µM | 9.43 µM | 46.3 µM | 16.1 | 17 | 1.43 | 3.42 | 2.66 | 1.71 | 15.9 | 1.83 | 3.57 | 23.4
4 | C=CCN=C(N/N=C/c1ccc([N+](=O)[O-])o1)NS(=O)(=O)c1cc(C(=O)Nc2ccc(Cl)cc2)c(Cl)cc1SC | > 100 µM | > 100 µM | > 100 µM | > 100 µM | > 100 µM | > 100 µM | > 100 µM | 4.04 µM | > 100 µM | > 100 µM | > 37.3 | > 62.7 | > 64.1 | > 58.8 | 6.94 | 2.63 | 28.5 | 0.935 | 8.55 | > 100
5 | COc1ccc2c(c1)NC1=C(C(=O)OC1)C2c1cc(OC)c2c(c1)OCO2 (configuration not stated) | > 100 µM | > 100 µM | > 100 µM | 0.0251 µM | > 100 µM | > 100 µM | 0.0437 µM |  | > 100 µM |  | 0.0229 | 0.0259 | < 0.0189 |  | 0.032 | 0.0288 | < 0.0146 | < 0.0182 | 0.0502 | < 0.0165
6 | O=C1CCCCCCCCCCC1CN1CCCC1 (configuration not stated) | > 100 µM | > 100 µM | 70.7 µM | > 100 µM | 44.7 µM | > 100 µM | > 100 µM | > 100 µM | > 100 µM | > 100 µM |  |  |  |  |  |  |  |  |  | 
7 | C[C@H]1CC[C@@]2(NC1)O[C@H]1C[C@H]3[C@@H]4CC[C@H]5C[C@@H](O)CC[C@]5(C)[C@H]4CC[C@]3(C)[C@H]1[C@@H]2C | 50 µM and > 100 µM | 19.7 µM and > 100 µM | 41.8 µM and > 100 µM | 29.3 µM and > 100 µM | 18.7 µM and > 100 µM | 29.9 µM and > 100 µM | 35.2 µM and > 100 µM | 17.3 µM and > 100 µM | 34.5 µM and > 100 µM | 22.4 µM and > 100 µM | 19.6 | 8.92 | 14.4 | 13.6 | 9.23 | 11.2 | 13.8 | 8.32 | 12.9 | 8.71
8 | COc1cc(OC)c(C/C=C/c2ccccc2)cc1O | 46.6 µM | 35.2 µM | 29.4 µM | 27.2 µM | 32.2 µM | 32.7 µM | 28.8 µM | 30 µM | 40.9 µM | 31.4 µM |  |  |  |  |  |  |  |  |  | 
9 | COc1cccc(-c2c[nH]c3c(N/N=C/c4ccncc4)ncnc23)c1 | 10.1 µM | 11.8 µM | 6.73 µM | 7.78 µM | 18.6 µM | > 19.3 µM | 7.7 µM | 5.36 µM | > 25 µM | > 19.3 µM | 2.67 | 2.98 | 1.27 | 2.25 | 1.26 | 1.65 | 1.96 | 1.24 | 1.84 | 4.54
10 | N#C/C(=C\c1ccsc1)c1nc2ccccc2o1 | > 100 µM | > 100 µM | > 100 µM | > 100 µM | > 100 µM | > 100 µM | > 100 µM | > 100 µM | > 100 µM | > 100 µM | > 100 | > 100 | > 100 | 50.6 | 8.4 | > 100 | 33.6 | 35.7 | 22.3 | > 100
11 | Nc1ncnc2c1N=C(c1ccc3c(c1)OCO3)CC(c1ccc([N+](=O)[O-])cc1)N2 (configuration not stated) | > 100 µM | > 100 µM | > 100 µM | > 100 µM | > 100 µM | > 100 µM | 90 µM | > 100 µM | > 100 µM | > 100 µM | 69.7 | > 100 | 22.9 | 6.78 | 79.1 | 82.6 | 25.1 | 18.2 | 25.5 | 55.4
12 | COc1cc2nc(N3CCCC3)nc(NCc3ccccc3)c2cc1OC | 16.3 µM | 25.2 µM | 3.36 µM | 4.96 µM | 3.07 µM | 21.7 µM | 8.56 µM | 4.12 µM | 3.14 µM | 18.7 µM | 4.1 | 11.2 | 1.71 | 2.14 | 1.65 | 8.09 | 2.16 | 1.82 | 1.57 | 3.71
13 | CN1CCN(C(=O)C(C)(C)c2ccc(C(=O)Nc3cn4cc(-c5ccncc5)ccc4n3)cc2)CC1 | > 100 µM | 19.2 µM | 0.934 µM | 13.4 µM | > 100 µM | > 100 µM | 0.418 µM | > 100 µM | > 100 µM | > 100 µM | 0.214 | 0.307 | 0.215 | 0.22 | 0.539 | 0.267 | 0.157 | 0.0802 | 0.193 | 0.917
